Calls of active or inactive are those of the source. Cut-off read from the data, not from the text of the source, for most assays here: actives have a measured EC50 and inactives only a lower limit.
Assays:
[1] = target: G-protein coupled receptor 55 (Homo sapiens, UniProt Q9Y2T6); assay: selective activators of receptor GPR55 – imaging, U2OS cells, beta-arrestin-GFP redistribution, primary screen (AID 1961); assay type: functional
cells [2] = assay type: functional, cell-based
[3] = target: ATP-dependent molecular chaperone HSP82 (Candida albicans (strain WO-1) (Yeast), UniProt C4YTQ8); assay: steroid-induced GRE reporter decrease in yeast – S. cerevisiae, luminescence, Hsp90 inhibitor project, dose response (AID 2400); assay type: functional, cell-based;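 note: beta-galactosidase luminescence from glucocorticoid response element reporter as proxy for Hsp90 function; inhibitor potency where signal loss means Hsp90 inhibition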
Sequence of ATP-dependent molecular chaperone HSP82 (C4YTQ8 whole entry): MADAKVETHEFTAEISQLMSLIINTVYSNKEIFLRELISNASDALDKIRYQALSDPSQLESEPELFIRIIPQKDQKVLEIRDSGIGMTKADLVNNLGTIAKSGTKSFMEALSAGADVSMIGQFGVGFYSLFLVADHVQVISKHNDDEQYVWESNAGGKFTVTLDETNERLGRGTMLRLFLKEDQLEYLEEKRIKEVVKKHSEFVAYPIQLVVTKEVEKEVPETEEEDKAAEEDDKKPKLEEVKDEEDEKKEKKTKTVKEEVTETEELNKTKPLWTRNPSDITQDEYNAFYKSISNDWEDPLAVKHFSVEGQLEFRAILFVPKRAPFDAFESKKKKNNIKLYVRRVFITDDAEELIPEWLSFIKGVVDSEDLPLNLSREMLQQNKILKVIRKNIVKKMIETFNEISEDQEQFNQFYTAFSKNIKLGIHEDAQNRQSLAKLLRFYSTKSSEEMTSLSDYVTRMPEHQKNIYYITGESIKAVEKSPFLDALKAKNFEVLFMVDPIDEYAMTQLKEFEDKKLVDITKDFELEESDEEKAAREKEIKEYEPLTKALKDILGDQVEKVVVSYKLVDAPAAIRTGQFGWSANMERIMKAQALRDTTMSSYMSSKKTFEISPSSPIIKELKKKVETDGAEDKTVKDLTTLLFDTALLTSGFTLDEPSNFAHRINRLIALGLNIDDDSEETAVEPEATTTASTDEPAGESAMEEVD

[4] = NIH3T3 cell viability loss – ATP luminescence, mouse fibroblasts, counter-screen, dose response (AID 2010); assay type: functional, cell-based;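 note: cells exposed to compound for about 90 hours before reading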
INS1 = assay: INS-1E survival protection against cytokine death – cell-based, luminescence, retest, dose response (AID 449756); assay type: functional; conditions: Rattus norvegicus;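 note: cell death triggered by IL-1 beta plus TNF-alpha plus IFN-gamma mixture; protective hits raise ATP signal compared with cytokine alone wells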
[5] = NIH-3T3 fibroblast cytotoxicity, dose response, cytotoxicity control, cell-based, fluorescence, Alamar Blue, secondary assay (AID 2327); assay type: functional;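 note: NIH-3T3 mouse fibroblasts cultured with fluconazole at 8 µg/mL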
Streptococcus = assay: GAS UMAA2166 growth inhibition – luminescence, BacTiterGlo, counter-screen for streptokinase expression inhibitor project, dose response (AID 1915); assay type: functional, organism-based;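 note: potency for reduction of bacterial viability or growth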
[6] = Trypanosoma cruzi growth suppression in host cells – NIH3T3 host cells, beta-gal luminescence, confirmation (AID 2044); assay type: functional, cell-based;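 note: intracellular parasites grown in NIH/3T3 mouse fibroblasts as host cells; luminescent beta-galactosidase reporter signal from transgenic T. cruzi replicating inside host cells; inhibitors lower the luminescence signal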
cells [7] = assay type: functional, cell-based; remark: listed apart in the source
[8] = target: T1, Serine/threonine-protein phosphatase (Candida dubliniensis (strain CD36 / CBS 7987 / NCPF 3949 / NRRLY-17841) (Yeast), UniProt B9W6M3); assay: blockers of CaCl2-induced CDRE-lacZ signaling – S. cerevisiae, luminescence, secondary, dose response (AID 2388); assay type: functional, cell-based;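 note: yeast reporter cells carrying a calcineurin-responsive lacZ construct stimulated with calcium chloride; luminescent beta-galactosidase reporter signal in whole cells rather than isolated phosphatase activity; potency for inhibition where a drop in reporter signal means calcineurin blockade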
T1 sequence (B9W6M3 whole entry): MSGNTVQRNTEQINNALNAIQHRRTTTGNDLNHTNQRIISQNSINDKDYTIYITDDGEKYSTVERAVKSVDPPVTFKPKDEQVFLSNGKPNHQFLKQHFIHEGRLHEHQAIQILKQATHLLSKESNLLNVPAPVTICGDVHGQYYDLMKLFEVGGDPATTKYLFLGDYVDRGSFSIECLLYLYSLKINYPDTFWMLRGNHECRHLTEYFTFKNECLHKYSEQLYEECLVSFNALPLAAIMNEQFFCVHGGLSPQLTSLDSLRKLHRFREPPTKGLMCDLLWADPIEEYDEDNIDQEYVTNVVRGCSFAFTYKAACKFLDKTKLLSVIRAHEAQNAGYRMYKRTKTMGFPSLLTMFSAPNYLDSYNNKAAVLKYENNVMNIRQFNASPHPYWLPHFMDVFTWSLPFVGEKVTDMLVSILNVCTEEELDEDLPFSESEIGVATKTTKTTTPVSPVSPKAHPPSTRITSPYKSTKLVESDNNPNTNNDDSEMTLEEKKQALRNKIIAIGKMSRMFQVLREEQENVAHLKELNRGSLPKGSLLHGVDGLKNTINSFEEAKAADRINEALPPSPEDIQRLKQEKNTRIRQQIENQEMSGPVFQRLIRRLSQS

[9] = tested on: Streptococcus sp. 'group A'; assay: Streptococcus pyogenes SK(-)GAS viability under kanamycin – luminescence, BacTiterGlo, confirmation, counter-screen for streptokinase expression inhibitor project, dose response (AID 1900); assay type: functional, organism-based
[10] = fluconazole-exposed Candida albicans growth modulators – fluorescence, retest, confirmation (AID 2467); assay type: functional, cell-based
Streptokinase A = target: T2, Streptokinase A (Streptococcus pyogenes serotype M1, UniProt P10520); assay: viability-normalized secreted streptokinase activity reduction – plasminogen activation absorbance, OD405, dose response (AID 1914); assay type: functional, Streptococcus pyogenes M1 GAS;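 note: secreted streptokinase activity via plasminogen activation per viability signal from cell pellet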
T2 sequence (P10520 whole entry): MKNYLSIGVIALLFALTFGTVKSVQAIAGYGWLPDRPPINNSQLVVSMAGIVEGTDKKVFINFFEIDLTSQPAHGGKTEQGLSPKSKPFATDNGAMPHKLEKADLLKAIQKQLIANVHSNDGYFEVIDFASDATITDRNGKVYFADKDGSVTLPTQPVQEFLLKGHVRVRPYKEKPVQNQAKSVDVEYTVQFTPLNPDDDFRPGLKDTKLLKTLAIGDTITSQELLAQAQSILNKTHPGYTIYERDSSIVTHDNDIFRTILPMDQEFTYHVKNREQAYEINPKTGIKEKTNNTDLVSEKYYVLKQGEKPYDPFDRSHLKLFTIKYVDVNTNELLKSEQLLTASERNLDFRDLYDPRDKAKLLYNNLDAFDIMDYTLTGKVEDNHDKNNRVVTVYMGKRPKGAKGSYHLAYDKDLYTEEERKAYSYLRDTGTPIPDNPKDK

[11] = target: T3, Tyrosine-protein phosphatase non-receptor type 7 (Homo sapiens, UniProt P35236); assay: redox-active compounds inhibiting HePTP phosphatase – biochemical, fluorescence, mechanism study (AID 2068); assay type: functional
T3 sequence (P35236 whole entry): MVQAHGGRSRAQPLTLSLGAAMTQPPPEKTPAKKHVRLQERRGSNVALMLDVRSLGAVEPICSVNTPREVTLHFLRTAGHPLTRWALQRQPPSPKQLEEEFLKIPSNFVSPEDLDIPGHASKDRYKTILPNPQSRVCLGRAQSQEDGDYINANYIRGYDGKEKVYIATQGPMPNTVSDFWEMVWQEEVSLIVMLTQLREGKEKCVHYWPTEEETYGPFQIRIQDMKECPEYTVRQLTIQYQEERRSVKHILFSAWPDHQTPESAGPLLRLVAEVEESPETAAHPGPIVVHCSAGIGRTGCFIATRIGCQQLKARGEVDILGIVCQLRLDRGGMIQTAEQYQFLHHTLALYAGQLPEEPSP

[12] = target: Dual specificity protein phosphatase 3 (Homo sapiens, UniProt P51452); assay: SAR VHR1 Fluorescent Assay for In Vitro dose response studies. [Related pubchem assays (depositor defined):AID1654, AID1661, AID1878, AID1992, AID2004, AID2070, AID2085]; assay type: functional
Sequence of Dual specificity protein phosphatase 3 (P51452 whole entry): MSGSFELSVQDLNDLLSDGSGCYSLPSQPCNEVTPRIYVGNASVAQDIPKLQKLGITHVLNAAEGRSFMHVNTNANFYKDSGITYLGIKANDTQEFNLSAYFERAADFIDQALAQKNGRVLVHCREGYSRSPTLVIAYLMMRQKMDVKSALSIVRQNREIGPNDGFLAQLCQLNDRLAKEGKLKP

Sequence of G-protein coupled receptor 55 (Q9Y2T6 whole entry): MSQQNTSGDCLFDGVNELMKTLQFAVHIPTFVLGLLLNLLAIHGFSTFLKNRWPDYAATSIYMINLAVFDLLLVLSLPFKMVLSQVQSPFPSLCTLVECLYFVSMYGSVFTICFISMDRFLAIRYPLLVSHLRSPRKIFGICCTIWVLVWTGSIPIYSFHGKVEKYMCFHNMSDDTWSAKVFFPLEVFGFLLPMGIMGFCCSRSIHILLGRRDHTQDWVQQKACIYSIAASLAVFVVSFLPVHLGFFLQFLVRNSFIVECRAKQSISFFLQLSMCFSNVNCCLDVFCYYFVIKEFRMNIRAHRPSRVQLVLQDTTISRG

| SMILES | EC50 [1] | EC50 (cells [2]) | EC50 [3] | EC50 [4] | AC50 (INS1) | EC50 [5] | EC50 (Streptococcus) | EC50 [6] | EC50 (cells [7]) | EC50 [8] | EC50 [9] | EC50 [10] | EC50 (Streptokinase A) | IC50 [11] | IC50 [12] |
| --- | --- | --- | --- | --- | --- | --- | --- | --- | --- | --- | --- | --- | --- | --- | --- |
| Cc1cc2ncn(-c3nnnn3-c3ccccc3)c2cc1C | 20 µM (inactive) | – | – | – | – | – | – | – | – | – | – | – | – | – | – |
| CC1CCN(Cc2c(C(=O)N/N=C/c3cc(Cl)ccc3O)nnn2-c2nonc2N)CC1 | 4.16 µM (active) | 10.7 µM (active) | > 150 µM (inactive) | 5.57 µM (active) | 0.457 µM (active) | > 150 µM (inconclusive) | > 150 µM (not active) | 0.541 µM (active) | > 350 µM (not active) | > 180 µM (inactive) | 27.3 µM (active) | 0.508 µM (active) | 31 µM (active) | – | – |
| O=C(Nc1ccc2nc(-c3ccco3)c(-c3ccco3)nc2c1)N1CCC(c2ccccc2)C1 (stereo unspecified) | – | – | – | – | – | – | – | – | – | – | – | – | – | 0.55 µM (active) | 14.7 µM (active) |

Source: ChEMBL document CHEMBL1201862, “PubChem BioAssay data set” (2004)
